Laboratory results as given in patent publication US11789012B2, “Cell death biomarker” (UCL Business PLC, priority 2016, dated 2023).

Assays:
MPM cell lines = experiment: Combination drug screen with rTRAIL as anchor drug; type: cell-based, Human; details: otherwise resistant cells; delta AUC synergy metric
Protocol: FIG. 7A is a volcano plot showing drug-genome interactions when rTRAIL was used as an anchor drug in combination with the library of 94 single agent compounds. Synergy was described using delta AUC metric. FIGS. 7B & 7C are graphs showing the effect of rTRAIL on cell viability of MPM cells in the presence of LCL161. TRAIL resistant MPM cells were treated with either 0-1000 ng/ml of TRAIL alone or a combination of 5 μM LCL161 and 0-1000 ng/ml of TRAIL for 24 hours and cell death was quantified by Annexin V/DAPI assay. FIG. 7D is a graph showing the effect of rTRAIL on cell viability of cells in the presence of the IAP inhibitor, LCL161. BAP1-transduced or BAP1 C91A-transduced H226 cells were treated either with 0-1000 ng/ml of TRAIL alone or combination of 5 μM LCL161 and 0-1000 ng/ml of TRAIL for 24 hours and cell death was quantified by Annexin V/DAPI assay.
Manual “single dose” combination screening was undertaken using 96 well formats. Cells were plated on day 1 in previously optimized seeding densities in 180 μl if media. On day 2 20 μl of a 10× concentration of […] was added. Cells were then allowed to grow for 72 hrs or 6 days and fixed at the end of the assay. Drug wells were compared to DMSO treated control wells.
Single agent high throughput 5 point viability screening was undertaken in 384 well formats using robotic liquid handling with fixing with 4% paraformaldehyde and staining for viability with Syto60 nucleic acid dye (Invitrogen) (see below).
A binary event matrix was compiled for the cell lines in the mesothelioma screen by aggregating copy number and exome data and this was used as input classifiers for genomic correlation. Data from this therapeutic screen was then analysed using a Multivariate Analysis of Variance (MANOVA) to annotate the sensitizing effect of genotype on dose response.

NCI-H226 = experiment: Annexin V/DAPI cell death assay, H226 parental and BAP1-transduced lines; type: cell-based, Human; details: 100 ng/ml, 24 hours; untransduced, BAP1-expressing and catalytically dead BAP1-expressing H226
Protocol: FIG. 5A is an immunoblot for BAP1 protein in BAP1 null mesothelioma lines following transfection with empty vector and BAP1 expression vector. […] FIG. 5C is a graph showing the effect of rTRAIL on cell viability of an untransduced H226 cell line, a BAP1 (transduced) cell line, and a H226 cell line with the NLS deleted.
Untransduced BAP1-negative H226 cells, BAP1-expressing and catalytically dead BAP1-expressing H226 cells were treated with 100 ng/ml of FASL, TRAIL and TNF-alpha for 24 hours and cell death was quantified by Annexin V/DAPI assay. *p<0.05 indicating significant difference between untransduced H226 cells H226 BAP1 expressing cells. NS no significant difference between untransduced H226 cells and BAP1 C91A transduced cells. #p<0.05 indicating significant difference between untransduced H226 cells and BAP1 C91A transduced cells.
Adherent mesothelioma cell lines were plated in a 96 well plate at approximately 10000 cells per well. Cells were plated and given 1 day to adhere at which time drug was added. After 48 hrs media, including floating cells, was collected from each well. The remaining adherent cells were washed with PBS and mobilised with 0.05% trypsin in EDTA. All cells were collected into tubes containing the previously removed media and pelleted by centrifugation (300 g, 5 minutes). Cells were then re-suspended in 1× Annexin V binding buffer with 10 μl/1 ml concentration of Annexin V-647 antibody (Invitrogen) and incubated for 15 minutes at room temperature. DAPI ([…]) was then added to each sample before flow cytometry analysis as below. Annexin V−/DAPI− cells were judged to be viable, AnnexinV+/DAPI− cells were considered to be undergoing apoptosis (early apoptotic phase), and Annexin V+/DAPI+ cells were considered late apoptotic or necrotic, and recorded as dead.

Molecule: CN[C@@H](C)C(=O)N[C@H](C(=O)N1CCC[C@H]1c1nc(C(=O)c2ccc(F)cc2)cs1)C1CCCCC1 [LCL161]
- effect on DRL-induced apoptosis in combination with rTRAIL (MPM cell lines): increase the efficacy of DRL-induced apoptosis

Molecule: COc1ccc(C(=O)CC2(O)C(=O)Nc3c(Cl)ccc(Cl)c32)cc1 (centres unmarked) [YK-4279]
- effect on DRL-induced apoptosis in combination with rTRAIL (MPM cell lines): increase the efficacy of DRL-induced apoptosis

Molecule: CNC(=O)c1cc(Oc2ccc(NC(=O)Nc3ccc(Cl)c(C(F)(F)F)c3)cc2)ccn1 [sorafenib]
- effect on DRL-induced apoptosis in combination with rTRAIL (MPM cell lines): increase the efficacy of DRL-induced apoptosis

Molecule: TNFα
- sensitivity of H226 cells to cell death-inducing ligand, dependence on BAP1 catalytic domain (NCI-H226): regulates the sensitivity

B1: FASL: cell death-inducing ligand, death receptor ligand (protein, UniProt P48023 130-281, looked up)
Tumor necrosis factor ligand …: QIGHPSPPPEKKELRKVAHLTGKSNSRSMPLEWEDTYGIVLLSGVKYKKGGLVINETGLYFVYSKVYFRGQSCNNLPLSHKVYMRNSKYPQDLVMMEGKMMSYCTTGQMWARSSYLGAVFNLTSADHLYVNVSELSLVNFEESQTFFGLYKL
- sensitivity of H226 cells to cell death-inducing ligand, dependence on BAP1 catalytic domain (NCI-H226): regulates the sensitivity
